Results published in patent publication US11505553B2, “2-(Het)aryl-substituted fused heterocycle derivatives as pesticides” (Bayer Aktiengesellschaft, priority 2017, dated 2022).
Where two headings read alike, the source gives them in different places.

Legend:
Format in all cases: in vivo
Nilaparvata lugens [1] = assay: Nilaparvata lugens test (NILALU S); conditions: read-out: % efficacy
Experimental: Solvent: 14 parts by weight of dimethylformamide Emulsifier: 2 parts by weight of alkylaryl polyglycol ether To produce an appropriate active ingredient formulation, 1 part by weight of active ingredient is dissolved with the stated parts by weight of solvent and emulsifier and made up with water until the desired concentration is attained. For production of further test concentrations, the mixture is diluted with water. If addition of ammonium salts or/and penetrants (rapeseed oil methyl ester) is required, these are each pipetted into the finished preparation solution in a concentration of 1000 ppm after the dilution. Rice plants (Oryza sativa, var. Balilla) are treated by spraying with the active ingredient formulation in the desired concentration and then populated with L3 larvae of the brown planthopper (Nilaparvata lugens). After the desired time, the kill in % is determined. 100% means that all planthoppers have been killed and 0%, means that no planthoppers have been killed.

Tetranychus urticae = Tetranychus urticae spray test; OP-resistant (TETRUR), contrastive examples; conditions: 144 h, 6 dat, read-out: % efficacy
Experimental: Solvent: 78.0 parts by weight of acetone • • 1.5 parts by weight of dimethylformamide Emulsifier: alkylaryl polyglycol ether To produce an appropriate active ingredient formulation, 1 part by weight of active ingredient is dissolved with the stated parts by weight of solvent and made up with water containing an emulsifier concentration of 1000 ppm until the desired concentration is attained. For production of further test concentrations, the mixture is diluted with emulsifier-containing water. Discs of bean leaves (Phaseolus vulgaris) infested by all stages of the common spider mite (Tetranychus urticae) are sprayed with an active ingredient formulation of the desired concentration. After the desired time, the efficacy in % is determined. 100% means that all spider mites have been killed; 0% means that no spider mites have been killed.

Aphis gossypii = Aphis gossypii spray test (APHIGO); conditions: 144 h, 6 dat, read-out: % efficacy
Experimental: Solvent: 14 parts by weight of dimethylformamide Emulsifier: alkylaryl polyglycol ether To produce an appropriate active ingredient formulation, 1 part by weight of active ingredient is dissolved with the stated parts by weight of solvent and made up with water containing an emulsifier concentration of 1000 ppm until the desired concentration is attained. For production of further test concentrations, the mixture is diluted with emulsifier-containing water. If addition of ammonium salts or/and penetrants is required, these are each added to the preparation solution in a concentration of 1000 ppm. Cotton plants (Gossypium hirsutum) severely infested by the cotton aphid (Aphis gossypii) are sprayed with an active ingredient formulation of the desired concentration. After the desired time, the kill in % is determined. 100% means that all aphids have been killed; 0% means that no aphids have been killed.

Myzus persicae [2] = assay: Myzus persicae drench test (MYZUPE D); conditions: soil, 240 h, 10 dat, read-out: % efficacy
Experimental: Solvent: 7 parts by weight of dimethylformamide Emulsifier: 2 parts by weight of alkylaryl polyglycol ether To produce an appropriate active ingredient formulation, 1 part by weight of active ingredient is mixed with the stated amounts of solvent and emulsifier, and the concentrate is diluted with water to the desired concentration, it being necessary to take into account soil volume into which drenching is effected. It should be ensured that a concentration of 40 ppm of emulsifier in the soil is not exceeded. For production of further test concentrations, the mixture is diluted with water. Savoy cabbage plants (Brassica oleracea) in earth pots, infested by all stages of the green peach aphid (Myzus persicae), are drenched with an active ingredient formulation of the desired concentration. After the desired time, the efficacy in % is determined. 100% means that all aphids have been killed; 0% means that no aphids have been killed.

Nilaparvata lugens [3] = assay: Nilaparvata lugens spray test (NILALU); conditions: 96 h, 4 dat, read-out: % efficacy
Experimental: Solvent: 52.5 parts by weight of acetone • 7 parts by weight of dimethylformamide
Emulsifier: alkylaryl polyglycol ether
To produce an appropriate active ingredient formulation, 1 part by weight of active ingredient is dissolved with the stated parts by weight of solvent and made up with water containing an emulsifier concentration of 1000 ppm until the desired concentration is attained. For production of further test concentrations, the mixture is diluted with emulsifier-containing water. If addition of ammonium salts or/and penetrants is required, these are each added to the preparation solution in a concentration of 1000 ppm.
Rice plants (Oryza sativa) are sprayed with an active ingredient formulation of the desired concentration and then populated with larvae of the rice cicada (Nilaparvata lugens).
After the desired time, the efficacy in % is determined. 100% means that all rice cicadas have been killed; 0% means that no rice cicadas have been killed.

Myzus persicae [4] = assay: Myzus persicae spray test (MYZUPE), contrastive examples; conditions: 120 h, 5 dat, read-out: % efficacy
Experimental: Solvent: 78.0 parts by weight of acetone • • 1.5 parts by weight of dimethylformamide Emulsifier: alkylaryl polyglycol ether To produce a suitable active ingredient formulation, 1 part by weight of active ingredient is dissolved with the specified parts by weight of solvent and made up to the desired concentration with water containing an emulsifier concentration of 1000 ppm. To produce further test concentrations, the formulation is diluted with emulsifier-containing water. Discs of chinese cabbage leaves (Brassica pekinensis) infested by all stages of the green peach aphid (Myzus persicae) are sprayed with an active ingredient formulation of the desired concentration. After the desired time, the efficacy in % is determined. 100% means that all aphids have been killed; 0% means that no aphids have been killed.

Nezara viridula = Nezara viridula spray test (NEZARA); conditions: 96 h, NEZAVI, 4 dat, read-out: % efficacy
Experimental: Solvent: 52.5 parts by weight of acetone • 7 parts by weight of dimethylformamide Emulsifier: alkylaryl polyglycol ether To produce an appropriate active ingredient formulation, 1 part by weight of active ingredient is dissolved with the stated parts by weight of solvent and made up with water containing an emulsifier concentration of 1000 ppm until the desired concentration is attained. For production of further test concentrations, the mixture is diluted with emulsifier-containing water. If addition of ammonium salts or/and penetrants is required, these are each added to the preparation solution in a concentration of 1000 ppm. Barley plants (Hordeum vulgare) infested with larvae of the southern green shield bug (Nezara viridula) are sprayed with an active ingredient formulation of the desired concentration. After the desired time, the efficacy in % is determined. 100% means that all bugs have been killed; 0% means that no bugs have been killed.

Work on CCNC(=O)Nc1ccc(S(=O)(=O)CC)c(-c2nc3cc(C(F)(F)C(F)(F)F)nnc3n2C)n1 [Comparison, reference compound] yielded an Emax at 0.8 ppm (Nilaparvata lugens [1]; 168 h, 7 dat) of 5%, an Emax at 0.8 ppm (Nilaparvata lugens [1]; 336 h, 14 dat) of 20% and an Emax at 100 g/ha (Tetranychus urticae) of 0%. It also gave an Emax at 4 ppm (Aphis gossypii) of 15%, an Emax at 0.8 ppm (Myzus persicae [2]) of 0% and an Emax at 4 g/ha (Nilaparvata lugens [3]) of 0%. It also gave an Emax at 4 g/ha (Myzus persicae [4]) of 0% and an Emax at 0.8 g/ha (Nezara viridula) of 0%.
